Experimental data reported in patent US20200253917A1 (priority 2017, published 2020).

Experiments:
[1] = test system: hair follicle stem cells (HFSCs); assay type: in vivo, mice; conditions: topically treated skin, a week after treatment
lactate [2] = assay type: in vivo; conditions: aged mice, sorted HFSCs at the end of the hair cycle experiment
Excerpt: (§1) FIGS. 4A and 4B. Treatment with ETC inhibitors can accelerate the hair cycle in aged mice. FIG. 4A: Female mice were shaved at 17 months of age and then treated with vehicle or the indicated ETC inhibitor every other day for up to 30 days. Images taken over time indicate the ETC inhibition promotes a more complete re-growth of hair after shaving in aged mice. Quantification of phenotype emergence from two pairs of animals are presented on the right. Data shown are representative of three independent experiments with 10 mice each.
(§2) As mice age, the hair cycle is known to become protracted such that upon shaving, only portions of the backskin show regrowth of hair within a 1-2 months. Various batches of aged mice (at least 17 months) were treated for 30 days with ETC inhibitors to determine whether this metabolic manipulation could stimulate the hair cycle even in dormant follicles.

hair cycle [3] = assay type: in vivo; conditions: aged mice (at least 17 months), topical every other day for 30 days
Excerpt: as §1, §2

hair follicles = assay type: in vivo; conditions: backskin of topically treated telogen mice
Protocol: (§3) FIG. 1A: Mice were shaved at day 50 (Telogen) and topically treated with Phenformin (5 uM) every other day for 2-3 weeks. […] FIG. 1B: Quantification of changes to the hair cycle in treatment and control. Quantification performed across 13 vehicle and 9 Phenformin treated male mice. FIG. 1C: Changes to the thickness of the epidermis, dermis and hypodermis were assessed microscopically and quantified. […] Scale bars for D indicate 25 micrometers.
(§4) FIG. 3A: Mice were shaved at day 50 (Telogen) and topically treated with antimycin A or Rotenone every other day for 2-3 weeks. […] FIG. 3B: Quantification of changes to the hair cycle in treatment and control. Quantification was performed with 13 vehicle treated, 11 Rotenone treated, and 9 Antimycin A treated male animals. FIG. 3C: Changes to the thickness of the epidermis, dermis and hypodermis were assessed microscopically and quantified. FIG. 3D: Immunolocalization was performed to detect evidence of inflammation due to topical application of ETC inhibitors. Both vehicle and ETC inhibitor treated skin was immunostained for phosphor-EGFR ([…]), CD11b (marker of macrophages), and IL6 (Chemokine). Vehicle treated skin from a wounded animal with hyperplastic epidermis was used as a positive control for markers of inflammation. Scale bars indicate 50 micrometers.
These findings were also in stark contrast to previous studies showing that transgenic abrogation of the ETC led to hair follicle degeneration.

lactate [4] = assay type: in vivo, mice; conditions: topical treatment for 48 hours or 10 days
Protocol: FIG. 2A: Mice were treated topically with the indicated ETC inhibitor for 48 hours. Total epidermis was isolated, lysed and subjected to LDH activity assay. Relative LDH activity is presented as the rate of activity over 30 min in two different animals. FIG. 2B: Mice were treated topically with ETC inhibitor for 48 hours (TOP) or 10 days (BOTTOM). Total epidermis was isolated, and metabolites were extracted and subjected to metabolomics. Heatmap indicates relative levels of metabolites related to glycolysis and the TCA cycle.
To determine the effect on cellular metabolism of ETC inhibition by Rotenone, Phenformin and Antimycin A, two measures of metabolic pathways were performed. First, LDH activity was quantified on cells isolated from the epidermis treated with ETC inhibitors for 48 hours (FIG. 2A). Next, metabolomics was employed on sorted HFSCs with and without treatment for either 48 hours or 10 days.

hair cycle [5] = assay type: in vivo; conditions: mice shaved at day 50 (Telogen); for pigmentation in response to treatment: topical every other day for 2-3 weeks
Protocol: as §3, §4
To determine whether manipulation of ETC activity could affect HFSC activation, various inhibitors of ETC components were topically applied to mice during a resting phase of the hair cycle. The topical formulation was prepared by suspending the active ingredient in PLO Ultramax Gel (lecithin organogel). At postnatal day 50, the hair follicle is in telogen, a resting phase where the stem cells of the follicle are quiescent until the start of the next hair cycle at day 70-80. Rotenone, Phenformin, and Antimycin A are established inhibitors of […], respectively. Animals were shaved at postnatal day 47 and treated with the indicated compounds or vehicle on the shaved area every 48 hours for the indicated duration. […]

Compound | HFSC activation (Sox9 and Ki-67 immunohistochemistry) [1] | lactate pool levels (metabolomics) (lactate [2]) | hair regrowth across the backskin after shaving (hair cycle [3]) | H and E staining / histological analysis of the hair cycle (hair follicles) | lactate levels and glycolytic intermediates (metabolomics) (lactate [4]) | pigmentation in response to treatment (hair cycle [5]) | pigmentation and hair growth in response to treatment (hair cycle [5]; topical Phenformin 5 uM every other day for 2-3 weeks, at 10 and 16 days)
Antimycin A | HFSCs became activated | increase in lactate pool levels | more complete hair regrowth across the entire backskin | advancement of the hair cycle | increase in lactate levels as well as several other glycolytic intermediates | new pigmentation | 
[H]/N=C(/N)N/C(=N/[H])NCCc1ccccc1 [Phenformin] | HFSCs became activated | increase in lactate pool levels | more complete hair regrowth across the entire backskin | advancement of the hair cycle | increase in lactate levels as well as several other glycolytic intermediates |  | new pigmentation and then hair growth
C=C(C)[C@H]1Cc2c(ccc3c2O[C@@H]2COc4cc(OC)c(OC)cc4[C@@H]2C3=O)O1 [Rotenone] | HFSCs became activated | increase in lactate pool levels | more complete hair regrowth across the entire backskin | advancement of the hair cycle | increase in lactate levels as well as several other glycolytic intermediates | new pigmentation | 
